Source: patent US10537608B2, “Adiponectin peptidomimetics for treating ocular disorders” (Allysta Pharmaceuticals, Inc., priority 2015, dated 2020)
Primed or numbered codes have the meaning given here. Where no end group is shown, it is not given here. [ ]: non-standard residue; d: D form. Dab′ = 2,3-diamino butyric acid; Nva = CCC[C@H](N)C(=O)O

Key:
Type in all cases: in vivo, C57BL/6 mice
[1] = system: Experimental dry eye (EDE) mice; test: Corneal fluorescein staining in experimental dry eye mice (Example 4); conditions: single treatment, topical; D5 and D10
Experimental: Experimental dry eye (EDE) was induced in 8-week old female C57BL/6 mice by subcutaneous injection of 0.5 mg/0.2 mL scopolamine hydrobromide (Sigma-Aldrich, St. Louis, Mo.) three times a day (9 AM 0.3 mL, 1:30 PM 0.3 mL, and 6:00 PM 0.3 mL). The mice were also exposed to an air draft and 30% ambient humidity. Five experimental groups used in this study included: (1) untreated control mice (UT; no dry eye treatment and no topical treatment); (2) EDE control mice received a balanced salt solution (BSS); (3) EDE mice received ADP 355 0.1% (single chain adiponectin peptidomimetic (ADP 355) in BSS); (4) EDE mice received Lifitegrast 5%; and (5) EDE mice received 0.1% peptide adiponectin peptidomimetic (ADP 355) in BSS+Lifitegrast 5%. […] Mice were evaluated at baseline, day 5 and day 10 after the treatment initiation.
Experiment 2—Corneal staining: The purpose of the corneal staining assay was to evaluate damage to the cornea epithelia in the murine EDE subject either as a consequence of inducing dry eye or due to treatment with 0.1% ADP 355 or with Lifitegrast 5% alone or with the combination of 0.1% ADP 355+Lifitegrast 5%. […] Corneal staining was assessed in four quadrants using a 4-point scale with 16 being the maximum score.
Briefly, fluorescein dye (1 μï) was instilled into the eye and then the eye was washed with saline. […] The average score from the five regions was recorded. […]

[2] = system: Experimental dry eye (EDE) mice; test: Tear volume by phenol red thread tear test in experimental dry eye mice (Example 3); conditions: 0.01% in BSS; for tear production, as measured by tear volume, compared to untreated or BSS treated EDE mice: topical 2 μl/eye 3 times a day, day 5 and day 10, p-value<0.05 vs. EDE; for difference in tear volume among those treated with ADP355, ADP399 and globular adiponectin: topical, EDE mice
Experimental: (§1) Experimental dry eye (EDE) was induced in 8-week old female C57BL/6 mice by subcutaneous injection of 0.5 mg/0.2 mL scopolamine hydrobromide (Sigma-Aldrich, St. Louis, Mo.) three times a day (9 AM, 1:30 PM and 6 PM). A dose of 0.3 mL scopolamine hydrobromide was administered at each injection. The mice were also exposed to an air draft and 30% ambient humidity. 6 experimental groups used in this study included: (1) untreated control mice (UT; no dry eye treatment and no topical treatment); (2) untreated EDE control mice (EDE; received no topical administration); (3) EDE control mice received a balanced salt solution (BSS); (4) EDE mice received 0.01% single chain adiponectin peptidomimetic (ADP355) in BSS; (5) EDE mice receiving 0.01% peptide dimer adiponectin peptidomimetic (ADP399) in BSS; and (6) EDE mice receiving 0.01% recombinant globular adiponectin (gAdipo) in BSS. Each group included 5 mice. EDE mice treated with BSS received topical bilateral administration of 2 μï/eye, 3 times a day. EDE mice treated with ADP355 received topical bilateral administration of 2 μï/eye, 3 times a day. EDE mice treated with ADP-399 received topical bilateral administration of 2 μï/eye, 3 times a day. The gAdipo treated mice served as a positive treatment control. Mice were evaluated at baseline, day 5 and day 10 after the treatment initiation. In some experiments, ADP355, ADP-399 and gAdipo were resuspended in 0.01% BSA.
Tear volume was measured using a phenol red thread tear test. Briefly, a cotton thread treated with phenol red at its tip (Zone-Quick; Oasis, Glendora, Calif.) was held with jeweler's forceps and placed in the tear meniscus of the lateral canthus for 20 sees to contact tear fluid. Using a microscope, the length of the red portion (wet portion) of the thread was measured in millimeters. A standard curve was derived to convert the distance measurement into tear volume.

[3] = system: Experimental dry eye (EDE) mice; test: Corneal fluorescein staining in experimental dry eye mice (Example 3); conditions: 0.01% in BSS; for corneal staining (corneal irregularity) compared to untreated EDE mice: topical 3 times a day, score 0-4, day 5 and day 10, p-value<0.05 vs. EDE; for corneal surfaces compared to untreated normal mice (UT) and positive control gAdipo-treated mice: topical, EDE mice
Experimental: as §1
The severity of corneal epithelial damage was evaluated by corneal fluorescein staining. Briefly, 1% fluorescein dye (1 μï) was instilled into the eye and then the eye was washed with saline. 10 minutes after application of the dye, the eye was photographed with a slip lamp microscope using a cobalt blue light. The stained area was graded using a scoring system by two blinded observers. […] The average score from the five regions was recorded. […] In addition, the adiponectin peptidomimetic-treated mice (ADP355 and ADP-399) had corneal surfaces that were similar to those of untreated normal mice (UT) and positive control globular adiponectin-treated mice (gAdipo). The corneal surface scores in all groups at day 10 were similar to those at day 5 after treatment initiation.

Compound	corneal disruptions resulting from induced dry eye (corneal staining grade) vs untreated eyes (BSS) [1]	tear production, as measured by tear volume, compared to untreated or BSS treated EDE mice [2]	difference in tear volume among those treated with ADP355, ADP399 and globular adiponectin [2]	corneal staining (corneal irregularity) compared to untreated EDE mice [3]	corneal surfaces compared to untreated normal mice (UT) and positive control gAdipo-treated mice [3]
CS(=O)(=O)c1cccc(C[C@H](NC(=O)c2c(Cl)cc3c(c2Cl)CCN(C(=O)c2ccc4ccoc4c2)C3)C(=O)O)c1 [Lifitegrast, reference compound]	improved corneal disruptions	–	–	–	–
(DAsn-Ile-Pro-Nva-Leu-Tyr-DSer-Phe-Ala-DSer-His-Pro)2-Dab-NH2 ([dN]IP[Nva]LY[dS]FA[dS]HP[Dab′]-NH2; also: branched dimer: two chains joined via C-terminal Dab) [ADP399, linear branched dimer of ADP355]	–	higher	no significant difference	less corneal staining	similar
DAsn-Ile-Pro-Nva-Leu-Tyr-DSer-Phe-Ala-DSer-NH2 ([dN]IP[Nva]LY[dS]FA[dS]-NH2; N-terminus assumed; SMILES CCC[C@H](NC(=O)[C@@H]1CCCN1C(=O)[C@@H](NC(=O)[C@H](N)CC(N)=O)[C@@H](C)CC)C(=O)N[C@@H](CC(C)C)C(=O)N[C@@H](Cc1ccc(O)cc1)C(=O)N[C@H](CO)C(=O)N[C@@H](Cc1ccccc1)C(=O)N[C@@H](C)C(=O)N[C@H](CO)C(N)=O) [ADP355, single chain adiponectin peptidomimetic]	improved corneal disruptions	higher	no significant difference	less corneal staining	similar
